This is an account of results in ChEMBL document CHEMBL1150538, “Anti HIV-1 activity of a hydrophilic cyclosporin derivative with improved binding affinity to cyclophilin A” (Bioorg Med Chem Lett, 1996).

The species entered for one assay is Mus musculus. The experiment in a line: In vitro immunosuppressive activity relative to cyclosporin A was determined by using mouse mixed lymphocyte reaction. The class given is functional.
Another assay deals with Jurkat. As to the kind of experiment: In vitro immunosuppressive activity relative to cyclosporin A using interleukin-2 reporter gene assay was determined in a Jurkat cell line. The class given is functional, Homo sapiens. Background: A reporter such as luciferase makes a cellular process visible.
The test system of the next assay is AIK-T4. As to the kind of experiment: In vitro inhibition of the cytopathic effect induced by HIV-1(IIIB) using the human T-cell leukemia virus transformed T4 cell line. The class given is functional, cell-based. (Damage to the host cells serves as the signal in cytopathic effect assays.)

The structures appear in SMILES notation. In brackets after ≈: the same amount, converted by molar mass. Some results are limits rather than exact numbers.

Regarding `C/C=C/C[C@@H](C)[C@@H](O)[C@H]1C(=O)N[C@@H](CC)C(=O)N(C)[C@H](CO)C(=O)N(C)[C@@H](CC(C)(C)O)C(=O)N[C@@H](C(C)C)C(=O)N(C)[C@@H](CC(C)C)C(=O)N[C@@H](C)C(=O)N[C@H](C)C(=O)N(C)[C@@H](CC(C)C)C(=O)N(C)[C@@H](CC(C)C)C(=O)N(C)[C@@H](C(C)C)C(=O)N1C` [listing 1 of 2 here], the results for the “Relative IC50” value in the assay listed under Mus musculus and in the assay with Jurkat were above 3333 and above 770, respectively.

As usually defined, the IC50 is the concentration that gives 50% inhibition. A low value points to inhibition by little substance. The compound `C/C=C/C[C@@H](C)[C@@H](O)[C@H]1C(=O)N[C@@H](CC)C(=O)N(C)[C@H](CO)C(=O)N(C)[C@@H](CC(C)(C)O)C(=O)N[C@@H](C(C)C)C(=O)N(C)[C@@H](CC(C)C)C(=O)N[C@@H](C)C(=O)N[C@H](C)C(=O)N(C)[C@@H](CC(C)C)C(=O)N(C)[C@@H](CC(C)C)C(=O)N(C)[C@@H](C(C)C)C(=O)N1C` [listing 2 of 2 here] returned a half-maximal inhibitory concentration (IC50) in the assay with AIK-T4 of 0.12 µg/mL (≈ 0.0961 µM).
